From ChEMBL document CHEMBL5126590 (Bioorg Med Chem, 2022)
The source made the active and inactive calls. The rule behind the calls is not given here.

Columns and labels:
[1] = molecular target: T1, Interstitial collagenase (Homo sapiens) (UniProt P03956); assay: (§1) Binding affinity to human MMP-1 catalytic domain (100 to 269 residues) expressed in Escherichia coli BL21 Star (DE3) by SPR analysis; settings: DDE = dose-dependent effect
T1 sequence (whole entry): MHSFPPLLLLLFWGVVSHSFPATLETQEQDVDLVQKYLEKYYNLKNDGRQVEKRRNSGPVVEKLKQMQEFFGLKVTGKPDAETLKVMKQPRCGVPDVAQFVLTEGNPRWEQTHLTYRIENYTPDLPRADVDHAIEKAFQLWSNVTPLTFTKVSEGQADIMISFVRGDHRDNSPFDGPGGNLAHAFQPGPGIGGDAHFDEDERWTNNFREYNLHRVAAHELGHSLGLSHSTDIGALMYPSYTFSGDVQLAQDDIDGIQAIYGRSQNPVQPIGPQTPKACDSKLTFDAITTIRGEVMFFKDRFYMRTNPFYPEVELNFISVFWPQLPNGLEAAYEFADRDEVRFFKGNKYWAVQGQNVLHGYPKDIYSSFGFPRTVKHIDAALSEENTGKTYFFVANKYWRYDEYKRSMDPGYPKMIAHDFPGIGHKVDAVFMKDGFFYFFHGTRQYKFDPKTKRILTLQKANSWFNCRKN

[2] = molecular target: T1, Interstitial collagenase (Homo sapiens); assay: Inhibition of MMP-1 (unknown origin) using FRET substrate preincubated for 5 mins followed by substrate addition and measured after 30 mins by fluorescence assay; settings: dose 25-100 µM, time 35.0 min, DDE = dose-dependent effect
B16-F10 [3] = assay: Binding affinity to MMP-1 in mouse B16-F10 cell lysate by Western blot analysis; assay type: subcellular
[4] = molecular target: Mitogen-activated protein kinase kinase kinase 11 (Mus musculus) (UniProt Q80XI6); assay: Binding affinity to MLK3 in mouse B16-F10 cell lysate by pull down assay; assay type: subcellular
[5] = molecular target: T1, Interstitial collagenase (Homo sapiens); assay: Binding affinity to human 15N-labelled MMP-1 catalytic domain (100 to 269 residues) expressed in Escherichia coli BL21 Star (DE3) assessed as chemical shift perturbation at F97 residue at 500 uM by 1H-15N HSQC spectra analysis
Interstitial collagenase = molecular target: T2, Interstitial collagenase (Homo sapiens, UniProt P03956); assay: as §1
T2 sequence (P03956 whole entry): T1 sequence (whole entry)

B16-F10 [6] = assay: Binding affinity to MMP-1 in mouse B16-F10 cell lysate by pull down assay; assay type: subcellular
[7] = molecular target: Heat shock cognate 71 kDa protein (Mus musculus) (UniProt P63017); assay: Binding affinity to HSP73 in mouse B16-F10 cell lysate by pull down assay; assay type: subcellular
[8] = molecular target: Heat shock cognate 71 kDa protein (Mus musculus) (UniProt P63017); assay: Binding affinity to HSP73 in mouse B16-F10 cell lysate by Western blot analysis; assay type: subcellular
[9] = molecular target: T1, Interstitial collagenase (Homo sapiens); assay: Binding affinity to human 15N-labelled MMP-1 catalytic domain (100 to 269 residues) expressed in Escherichia coli BL21 Star (DE3) assessed as chemical shift perturbation at E99 residue at 500 uM by 1H-15N HSQC spectra analysis
[10] = molecular target: Actin, cytoplasmic 1 (Mus musculus) (UniProt P60710); assay: Binding affinity to beta-actin in mouse B16-F10 cell lysate by pull down assay; assay type: subcellular
[11] = molecular target: Actin, cytoplasmic 1 (Mus musculus) (UniProt P60710); assay: Binding affinity to beta-actin in mouse B16-F10 cell lysate by Western blot analysis; assay type: subcellular

Heat shock cognate 71 kDa protein (Mus musculus), sequence (P63017 whole entry, the tested form may be a part): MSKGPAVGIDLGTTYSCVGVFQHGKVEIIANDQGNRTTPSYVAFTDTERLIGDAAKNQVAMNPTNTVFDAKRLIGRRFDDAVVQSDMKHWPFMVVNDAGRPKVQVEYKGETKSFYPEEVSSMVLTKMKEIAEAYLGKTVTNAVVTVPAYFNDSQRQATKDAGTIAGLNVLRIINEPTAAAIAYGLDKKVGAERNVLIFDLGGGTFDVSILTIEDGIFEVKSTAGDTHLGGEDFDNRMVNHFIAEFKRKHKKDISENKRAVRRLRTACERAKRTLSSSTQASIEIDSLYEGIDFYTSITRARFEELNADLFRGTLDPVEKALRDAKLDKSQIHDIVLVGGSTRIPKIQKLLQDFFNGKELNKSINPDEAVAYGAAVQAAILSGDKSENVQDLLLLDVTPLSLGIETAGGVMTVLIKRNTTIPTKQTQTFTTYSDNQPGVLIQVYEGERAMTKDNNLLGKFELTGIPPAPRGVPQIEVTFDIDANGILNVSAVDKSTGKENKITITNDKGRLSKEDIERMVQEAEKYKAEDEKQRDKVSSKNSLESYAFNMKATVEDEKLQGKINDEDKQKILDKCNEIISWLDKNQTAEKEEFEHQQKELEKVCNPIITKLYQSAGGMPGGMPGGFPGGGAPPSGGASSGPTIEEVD
Mitogen-activated protein kinase kinase kinase 11 (Mus musculus), sequence (Q80XI6 whole entry, looked up, the tested form may be a part): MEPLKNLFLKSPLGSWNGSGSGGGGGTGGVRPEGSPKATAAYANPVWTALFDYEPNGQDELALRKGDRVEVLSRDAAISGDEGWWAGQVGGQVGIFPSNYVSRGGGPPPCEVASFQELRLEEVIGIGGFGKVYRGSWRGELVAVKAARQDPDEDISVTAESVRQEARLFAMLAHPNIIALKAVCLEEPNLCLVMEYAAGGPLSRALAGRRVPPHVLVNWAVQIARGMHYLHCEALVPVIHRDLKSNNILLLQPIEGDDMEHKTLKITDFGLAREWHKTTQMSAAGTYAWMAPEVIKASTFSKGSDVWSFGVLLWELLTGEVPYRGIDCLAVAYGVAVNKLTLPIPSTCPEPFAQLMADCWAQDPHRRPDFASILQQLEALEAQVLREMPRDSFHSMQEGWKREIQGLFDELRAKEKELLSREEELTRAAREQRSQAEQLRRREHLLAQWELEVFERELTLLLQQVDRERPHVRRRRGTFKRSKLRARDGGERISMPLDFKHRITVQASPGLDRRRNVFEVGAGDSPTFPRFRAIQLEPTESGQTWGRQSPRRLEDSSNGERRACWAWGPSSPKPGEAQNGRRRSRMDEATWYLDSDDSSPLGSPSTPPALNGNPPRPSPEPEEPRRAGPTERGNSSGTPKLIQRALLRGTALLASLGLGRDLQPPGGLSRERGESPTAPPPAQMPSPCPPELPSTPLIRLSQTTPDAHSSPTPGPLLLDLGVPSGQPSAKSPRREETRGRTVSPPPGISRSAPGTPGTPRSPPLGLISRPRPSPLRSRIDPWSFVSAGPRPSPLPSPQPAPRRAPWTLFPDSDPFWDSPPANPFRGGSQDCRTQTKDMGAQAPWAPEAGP

Row | SMILES | Activity [1] | inhibition [2] | Activity (B16-F10 [3]) | Activity [4] | Activity [5] [ppm] | Kd (Interstitial collagenase) [µM] | Activity (B16-F10 [6]) | Activity [7] | Activity [8] | Activity [9] [ppm] | Activity [10] | Activity [11]
1 | O=c1c(O)c(-c2ccc(O)c(O)c2)oc2cc(O)cc(O)c12 | Dde | Dde |  |  |  |  |  |  |  |  |  | 
2 | COc1c(-c2ccc(O)c(O)c2)oc2cc(O)cc(O)c2c1=O [3-O-METHYLQUERCETIN] | Dde | Dde | Active | Active | 0.05 | 21.7 | Active | Active | Active | > 0.03 | Active | Active
